Test results from patent US20230250436A1, “NUCLEIC ACID THAT INTERACTS WITH A RECEPTOR FOR ENDOCRINE DISRUPTING CHEMICALS AND USE THEREOF” (KUMIAI CHEMICAL INDUSTRY CO., LTD., priority 2020, published 2023).

Assays:
Assay type in all cases: cell-based
[1] = test system: juvenile hormone receptor of Daphnia magna (DampaMET); experiment: Yeast reporter (β-galactosidase) assay, transformants with DampaMET and DampaSRC; design: key to Increase in induction: increase of induction; positive value = reporter activity to substance
Method: (§1) Subsequently, a reporter plasmid prepared by inserting the nucleotide sequence shown in SEQ ID NO: 2 into a yeast comprising the DampaMET plasmid and the DampaSRC plasmid introduced thereinto by the lithium acetate method. Thus, Yeast 1 of Invention was obtained. In the same manner, Yeasts 2 to 38 of Invention each comprising the response element according to the present invention and Control yeasts 1 to 9 shown in Table 3 were prepared.
(§2) With the use of the Yeast 1 of Invention, reporter activity to methyl farnesoate as a juvenile hormone substance was measured. At the outset, the Yeast 1 of Invention was subjected to pre-culture at 30° C. for 18 hours using the pre-culture medium shown in Table 1 until the turbidity (O.D. 595) of the pre-culture medium reached approximately 0.1. The solution of the pre-cultured cells (10 μl) and 1 μl of the solution of methyl farnesoate diluted to various concentrations with dimethyl sulfoxide (DMSO) were mixed with 90 μl of the main culture solution shown in Table 4 in a 96-well plate, and the mixture was subjected to static culture at 30° C. for 18 hours to prepare a reaction solution. The resultant was designated as a test group.
(§3) A reaction solution prepared with the addition of 1 μl of DMSO instead of a diluted methyl farnesoate solution was designated as a control group. Fractions of 10 μl each were collected from the reaction solutions and dispensed into each well of another 96-well plate. Thereafter, 100 μl of an assay reagent comprising a lytic solution (Z buffer: 60 mM Na2HPO4, 40 mM NaH2PO4, 1 mM MgCl2, 10 mM KCl, 2 mM dithiothreitol, 0.20% N-lauroylsarcosine sodium salt) mixed with 1 mg/ml ONPG (orthonitrophenylgalactopyranoside) was dispensed into each well, and the reaction was allowed to proceed at 37° C. for 30 minutes. Thereafter, the absorbance (O.D. 405) and the turbidity (O.D. 595) of the reaction solutions were assayed at the wavelength of 405 nm using a microplate reader (tradename: iMark microplate reader, Bio-Rad Laboratories). The increase of induction was calculated in accordance with the following formula.
(§4) The increase of induction is described in Ito-Harashima S et al., FEBS Open Bio., 7 (7): pp. 995-1008, 2017. When the increase of induction is positive, the transformant is determined to have reporter activity to the substance tested. The test was performed once or repeated 3 times, 5 times, or 15 times, and the average increase of induction was calculated. The control yeast 1 was treated in the same manner and reporter activity was compared.
In the same manner as in Test Example 1, the Yeasts 2, 3, 4, 5, 6, 7, 9, 10, 11, 12, 13, 14, 15, 16, 17, 18, 19, and 20 of Invention were subjected to assays of reporter activity to methyl farnesoate. The test was performed in accordance with Test Example 1, and reporter activity of the yeasts indicated above was compared with that of the control yeasts 2, 3, and 4.
With the use of the control yeast 7 comprising a different nucleotide sequence of the C-box (CACGCG) in the response element, the control yeast 8 comprising a different nucleotide sequence of the E-box (CACGTG), and the control yeast 9 comprising different nucleotide sequences of the C-box and the E-box from the relevant nucleotide sequences of the Yeast 4 of Invention, the influence of a core sequence on reporter activity to methyl farnesoate was evaluated. The test was performed in accordance with Test Example 1.
(§5) With the use of the Yeast 4 and the Yeast 8 of the present Invention, reporter activity to sex hormones; i.e., 17β-estradiol and testosterone, insect juvenile hormones; i.e., juvenile hormone III, and chemical substances suspected of having endocrine disrupting actions, such as 4-nonyl phenol, bisphenol A, 1,1,1-trichloro-2,2-bis(4-chlorophenyl)ethane (DDT), 2,2-bis(4-chlorophenyl)-1,1-dichloroethylene (DDE), and dieldrin, was assayed. The test was performed in accordance with Test Example 1. All the test substances were treated at 10 μM. […]

[2] = test system: juvenile hormone receptor of Drosophila melanogaster (DmMET); experiment: Yeast reporter (β-galactosidase) assay, transformants with DmMET and DmTai; conditions: test substance 10 μM
Method: A plasmid expressing a juvenile hormone receptor of Drosophila melanogaster (hereafter, referred to as a “DmMET plasmid”) was prepared in the same manner. At the outset, ORF of cDNA of the DmMET gene was amplified by PCR using, as a template, cDNA of Drosophila melanogaster larvae (Clontech) and the primers for DmMET: DmMET Fwd (SEQ ID NO: 21) and DmMET Rev (SEQ ID NO: 22). PCR was carried out by repeating a cycle of 98° C. for 10 seconds, 55° C. for 30 seconds, and 68° C. for 1.5 minutes 25 times.
as §1, §2, §3, §4
With the use of the Yeast 4 and the Yeast 8 of the present Invention, reporter activity to sex hormones; i.e., 17β-estradiol and testosterone, insect juvenile hormones; i.e., juvenile hormone III, and chemical substances suspected of having endocrine disrupting actions, such as 4-nonyl phenol, bisphenol A, 1,1,1-trichloro-2,2-bis(4-chlorophenyl)ethane (DDT), 2,2-bis(4-chlorophenyl)-1,1-dichloroethylene (DDE), and dieldrin, was assayed. The test was performed in accordance with Test Example 1. All the test substances were treated at 10 μM. For comparison, reporter activity to compounds was assayed using the control yeast 5 and the control yeast 6 comprising a known juvenile hormone receptor response element (i.e., the JH response element of Drosophila melanogaster) integrated therein.

[3] = test system: juvenile hormone receptor of Daphnia magna (DampaMET); experiment: Yeast reporter (β-galactosidase) assay, Control yeast 5 with DampaMET, DmTai and DmJHRR; conditions: Control yeast 5 (DmJHRR x3, DampaMET, DmTai), test substance 10 μM
Method: For further comparison, a plasmid comprising a region including the juvenile hormone response element of the Kr-hi gene of Drosophila melanogaster (DmJHRR) inserted thereinto was prepared. DmJHRR is described in He Q et al., J. Biol. Chem., 289 (40), pp. 27874-27885, 2014. A plasmid comprising 3 consecutive repeats of the DmJHRR sequence inserted thereinto was prepared in accordance with the method described above, except that oligo DNA comprising the DmJHRR sequence (SEQ ID NO: 15) was used instead of the oligo DNA shown in SEQ ID NO: 3 and oligo DNA partially complementary to SEQ ID NO: 15 (SEQ ID NO: 16) was used instead of the oligo DNA shown in SEQ ID NO: 4.
as §1, §2, §3, §4, §5

[4] = test system: juvenile hormone receptor of Daphnia magna (DampaMET); experiment: Yeast reporter assay for antagonist activity in the presence of 10 nM methyl farnesoate; conditions: Yeast 4 of Invention; test substance 10 μM in the presence of 10 nM methyl farnesoate; 0 = group treated with 10 nM methyl farnesoate
Method: as §2
A reaction solution prepared with the addition of 1 μl of DMSO instead of a diluted methyl farnesoate solution was designated as a control group. Fractions of 10 μl each were collected from the reaction solutions and dispensed into each well of another 96-well plate. […] Thereafter, the absorbance (O.D. 405) and the turbidity (O.D. 595) of the reaction solutions were assayed at the wavelength of 405 nm using a microplate reader (tradename: iMark microplate reader, Bio-Rad Laboratories). The increase of induction was calculated in accordance with the following formula.
as §4, with “The control yeast 1 was treated in the same manner and reporter activity was compared.” left out
With the use of the yeast 4 of the present invention, antagonist activity of juvenile hormone receptors to endrin, aldrin, and dieldrin was evaluated at 10 μM. […]

[5] = Yeast 4 of Invention (SEQ ID NO: 2 x4, DampaMET, DampaSRC), test substance 10 μM
[6] = Yeast 8 of Invention (SEQ ID NO: 2 x4, DmMET, DmTai)
[7] = Control yeast 6 (DmJHRR x3, DmMET, DmTai)
[8] = Yeast 4 of Invention (SEQ ID NO: 2 x4), test substance 100 μM

Compound	Increase in induction [1, 5]	Increase in induction [2, 6]	Increase in induction [2, 7]	Increase in induction [3]	Increase in induction [1, 8]	other results
CCCCCCCCCc1ccc(O)cc1 [4-nonyl phenol]	2.16	1.81	–	–	–	–
C[C@]12CC[C@@H]3c4ccc(O)cc4CC[C@H]3[C@@H]1CC[C@@H]2O [17β-estradiol]	1.97	1.01	−0.29	−0.14	–	–
ClC1=C(Cl)C2(Cl)C3C4C=CC(C4)C3C1(Cl)C2(Cl)Cl (stereo not shown) [Aldrin, aldrin]	–	–	–	–	–	Increase in induction (antagonist activity) [4]: −9.02
CC(C)OC(=O)N[C@H](C(=O)N[C@H](C)c1nc2ccc(F)cc2s1)C(C)C [Benthiavalicarb isopropyl, benthiavalicarb isopropyl]	–	–	–	–	−0.37	–
CC(C)(c1ccc(O)cc1)c1ccc(O)cc1 [Bisphenol A, bisphenol A]	1.14	0.52	−0.23	−0.38	–	–
ClC(Cl)=C(c1ccc(Cl)cc1)c1ccc(Cl)cc1 [DDE, 2,2-bis(4-chlorophenyl)-1,1-dichloroethylene]	2.15	1.23	−0.19	−0.08	–	–
Clc1ccc(C(c2ccc(Cl)cc2)C(Cl)(Cl)Cl)cc1 [DDT, 1,1,1-trichloro-2,2-bis(4-chlorophenyl)ethane]	0.65	0.37	−0.24	−0.07	–	–
ClC1=C(Cl)[C@]2(Cl)[C@@H]3[C@@H]4C[C@@H]([C@H]5O[C@@H]45)[C@@H]3[C@@]1(Cl)C2(Cl)Cl [Dieldrin, dieldrin]	3.85	0.89	−0.02	0.00	–	Increase in induction (antagonist activity) [4]: −12.46
ClC1=C(Cl)C2(Cl)C3C4CC(C5OC45)C3C1(Cl)C2(Cl)Cl (stereo not shown) [Endrin, endrin]	–	–	–	–	–	Increase in induction (antagonist activity) [4]: −0.03
COc1ccc(-n2c(=O)c(C(=O)C3C(=O)CCCC3=O)nc3c(Cl)cccc32)cc1 [Fenquinotrione, fenquinotrione]	–	–	–	–	−0.24	–
COC(=O)/C=C(\C)CC/C=C(\C)CC[C@H]1OC1(C)C [Juvenile hormone III, juvenile hormone III]	6.20	1.45	0.58	0.41	–	Increase in induction ([2]; Control yeast 6 (DmJHRR x3, DmMET, DmTai), listed as juvenile hormone III): induced; Increase in induction ([3]; listed as juvenile hormone III): induced
CC#Cc1cc(C)nc(Nc2ccccc2)n1 [Mepanipyrim, mepanipyrim]	–	–	–	–	−0.76	–
COC(=O)NCc1cc(/C(C)=N/OCc2cccc(C)n2)ccc1Cl [Pyribencarb, pyribencarb]	–	–	–	–	−0.24	–
Cn1nc(C(F)(F)F)c(CS(=O)(=O)C2=NOC(C)(C)C2)c1OC(F)F [Pyroxasulfone, pyroxasulfone]	–	–	–	–	−0.50	–
C[C@]12CC[C@H]3[C@@H](CCC4=CC(=O)CC[C@@]43C)[C@@H]1CC[C@@H]2O [Testosterone, testosterone]	1.78	0.98	−0.22	−0.02	–	–
